Experimental data as given in US20020137929A1, “1 - (3-heterocyclylphenyl) isothiourea, -isourea, -guanidine and -amidine herbicidal agents” (Intellectual Property Department, BASF Aktiengesellschaft, priority 1998, published 2002).

Tests used:
ABUTH (Velvetleaf) = assay: Postemergence herbicidal evaluation; type: in vivo, Abutilon theophrasti; conditions: postemergence
In short: (§1)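 Young plants, roughly two weeks from seeding, receive the active ingredient as a sprayed dispersion (acetone/water 50/50, 0.5% TWEEN 20) at 40 psi. Doses span about 0.0156 to 0.500 kg/ha. A visual score from 0 to 9 compares treated with control plants four to five weeks on.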

AMBEL (Ragweed, Common) = assay: Postemergence herbicidal evaluation; type: in vivo, Ambrosia artemisifolia; conditions: postemergence
In short: as §1

[1] = test system: IPOHE (Morningglory, Ivyleaf); assay: Postemergence herbicidal evaluation; type: in vivo, Ipomoea hederacea; conditions: postemergence
In short: as §1

ECHCG (Barnyardgrass) [2] = assay: Postemergence herbicidal evaluation; type: in vivo, Echinochloa crus-galli; conditions: postemergence
In short: as §1

SETVI (Foxtail, Green) = assay: Postemergence herbicidal evaluation; type: in vivo, Setaria viridis; conditions: postemergence
In short: as §1

[3] = test system: GLXMAW (Soybean, Williams); assay: Postemergence herbicidal evaluation; type: in vivo, Glycine max, (L.) Merr. cv Williams; conditions: postemergence
In short: as §1

[4] = test system: TRZAWR (Wheat, Winter, cv Riband); assay: Postemergence herbicidal evaluation; type: in vivo, Triticum aestivum; conditions: postemergence
In short: as §1

CASOB (Sicklepod) = assay: Preemergence herbicidal evaluation; type: in vivo, Cassia obtusifolia; conditions: rated 4-5 weeks after treatment
In short: (§2)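 Scores use a 0–9 visual scale covering stand, vigor, malformation, size and chlorosis relative to controls, rated four to five weeks after treatment. Before emergence, soil-planted seeds were sprayed with compound in aqueous acetone at roughly 0.0156–0.500 kg/ha and held in the greenhouse.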

[5] = test system: CHEAL (Lambsquarters, Common); assay: Preemergence herbicidal evaluation; type: in vivo, Chenopodium album; conditions: rated 4-5 weeks after treatment
In short: as §2

GALAP (Galium) = assay: Preemergence herbicidal evaluation; type: in vivo, Galium aparine; conditions: rated 4-5 weeks after treatment
In short: as §2

[6] = test system: IPOHE (Morningglory, Ivyleaf); assay: Preemergence herbicidal evaluation; type: in vivo, Ipomoea hederacea; conditions: rated 4-5 weeks after treatment
In short: as §2

ECHCG (Barnyardgrass) [7] = assay: Preemergence herbicidal evaluation; type: in vivo, Echinochloa crus-galli; conditions: rated 4-5 weeks after treatment
In short: as §2

ZEAMX (Corn, Field) = assay: Preemergence herbicidal evaluation; type: in vivo, Zea mays; conditions: rated 4-5 weeks after treatment
In short: as §2

[8] = test system: ECHORC (Watergrass (Calif.)); assay: Postemergence weed control under flooded paddy conditions; type: in vivo, Echinochloa oryzoides; conditions: postemergence weeds, rated 3 to 4 weeks after treatment
In short: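 Flood-water application, about 0.0313–0.500 kg/ha a.i. in aqueous/acetone 50/50 v/v; water depth 1.5–3 cm throughout. Weeds 3–5 cm, rice 1.5–2.5 leaf. Greenhouse; 0–9 visual rating vs control at 3–4 wk.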

Which ABUTH herbicidal rating (ABUTH (Velvetleaf); rate 0.0158 kg/ha) does the source give for CC(C)C[C@@H](C(=O)O)N1C(=O)CSC1=Nc1cc(-n2c(=O)cc(C(F)(F)F)n(C)c2=O)c(F)cc1Cl [Compound 71, α-Isobutyl-2-{{2-chloro-5-[3,6-dihydro-3-methyl-2,6-dioxo-4-(trifluoromethyl)-1(2H)-pyrimidinyl]-4-fluorophenyl}imino}-4-oxo-3-thiazolidineacetic acid, L-] here?
Its ABUTH herbicidal rating is 9.0.

What about the ABUTH herbicidal rating (ABUTH (Velvetleaf); rate 0.0315 kg/ha) of the same molecule?
Its ABUTH herbicidal rating is 9.0.

What about the ABUTH herbicidal rating (ABUTH (Velvetleaf); rate 0.0630 kg/ha) of the same molecule?
The ABUTH herbicidal rating was 9.0.

And the AMBEL herbicidal rating (AMBEL (Ragweed, Common); rate 0.0158 kg/ha)?
Its AMBEL herbicidal rating is 9.0.

And the AMBEL herbicidal rating (AMBEL (Ragweed, Common); rate 0.0315 kg/ha)?
The AMBEL herbicidal rating was 9.0.

And the AMBEL herbicidal rating (AMBEL (Ragweed, Common); rate 0.0630 kg/ha)?
Its AMBEL herbicidal rating is 9.0.

What about the IPOHE herbicidal rating ([1]; rate 0.0158 kg/ha) of the same molecule?
Its IPOHE herbicidal rating is 9.0.

And the IPOHE herbicidal rating ([1]; rate 0.0315 kg/ha)?
Its IPOHE herbicidal rating is 9.0.

What about the IPOHE herbicidal rating ([1]; rate 0.0630 kg/ha) of the same molecule?
The IPOHE herbicidal rating was 9.0.

What about the ECHCG herbicidal rating (ECHCG (Barnyardgrass) [2]; rate 0.0158 kg/ha) of the same molecule?
Its ECHCG herbicidal rating is 4.0.

And the ECHCG herbicidal rating (ECHCG (Barnyardgrass) [2]; rate 0.0315 kg/ha)?
The ECHCG herbicidal rating was 4.0.

What about the ECHCG herbicidal rating (ECHCG (Barnyardgrass) [2]; rate 0.0630 kg/ha) of the same molecule?
The ECHCG herbicidal rating was 4.0.

And the SETVI herbicidal rating (SETVI (Foxtail, Green); rate 0.0158 kg/ha)?
The SETVI herbicidal rating was 4.0.

What about the SETVI herbicidal rating (SETVI (Foxtail, Green); rate 0.0315 kg/ha) of the same molecule?
Its SETVI herbicidal rating is 7.0.

What about the SETVI herbicidal rating (SETVI (Foxtail, Green); rate 0.0630 kg/ha) of the same molecule?
The SETVI herbicidal rating was 9.0.

And the GLXMAW herbicidal rating ([3]; rate 0.0158 kg/ha)?
The GLXMAW herbicidal rating was 6.5.

And the GLXMAW herbicidal rating ([3]; rate 0.0315 kg/ha)?
Its GLXMAW herbicidal rating is 7.5.

What about the GLXMAW herbicidal rating ([3]; rate 0.0630 kg/ha) of the same molecule?
The GLXMAW herbicidal rating was 7.5.

And the TRZAWR herbicidal rating ([4]; rate 0.0158 kg/ha)?
Its TRZAWR herbicidal rating is 2.5.

What about the TRZAWR herbicidal rating ([4]; rate 0.0315 kg/ha) of the same molecule?
Its TRZAWR herbicidal rating is 3.5.

And the TRZAWR herbicidal rating ([4]; rate 0.0630 kg/ha)?
Its TRZAWR herbicidal rating is 4.5.

What about the “Preemergence herbicidal rating CASOB” value (CASOB (Sicklepod); rate 0.0156 kg/ha) of the same molecule?
The value was 0.0.

And the “Preemergence herbicidal rating CASOB” value (CASOB (Sicklepod); rate 0.0313 kg/ha)?
Its value is 0.0.

And the “Preemergence herbicidal rating CASOB” value (CASOB (Sicklepod); rate 0.0625 kg/ha)?
The value was 0.0.

What about the “Preemergence herbicidal rating CASOB” value (CASOB (Sicklepod); rate 0.1250 kg/ha) of the same molecule?
Its value is 7.0.

And the “Preemergence herbicidal rating CASOB” value (CASOB (Sicklepod); rate 0.2500 kg/ha)?
Its value is 9.0.

And the “Preemergence herbicidal rating CHEAL” value ([5]; rate 0.0156 kg/ha)?
The value was 3.0.

And the “Preemergence herbicidal rating CHEAL” value ([5]; rate 0.0313 kg/ha)?
Its value is 9.0.

What about the “Preemergence herbicidal rating CHEAL” value ([5]; rate 0.0625 kg/ha) of the same molecule?
The value was 9.0.

And the “Preemergence herbicidal rating CHEAL” value ([5]; rate 0.1250 kg/ha)?
Its value is 9.0.

What about the “Preemergence herbicidal rating CHEAL” value ([5]; rate 0.2500 kg/ha) of the same molecule?
Its value is 9.0.

What about the “Preemergence herbicidal rating GALAP” value (GALAP (Galium); rate 0.0156 kg/ha) of the same molecule?
The value was 0.0.

And the “Preemergence herbicidal rating GALAP” value (GALAP (Galium); rate 0.0313 kg/ha)?
The value was 0.0.

And the “Preemergence herbicidal rating GALAP” value (GALAP (Galium); rate 0.0625 kg/ha)?
The value was 0.0.

And the “Preemergence herbicidal rating GALAP” value (GALAP (Galium); rate 0.1250 kg/ha)?
Its value is 9.0.

And the “Preemergence herbicidal rating GALAP” value (GALAP (Galium); rate 0.2500 kg/ha)?
Its value is 6.0.

What about the “Preemergence herbicidal rating IPOHE” value ([6]; rate 0.0156 kg/ha) of the same molecule?
The value was 0.0.

And the “Preemergence herbicidal rating IPOHE” value ([6]; rate 0.0313 kg/ha)?
The value was 0.0.

What about the “Preemergence herbicidal rating IPOHE” value ([6]; rate 0.0625 kg/ha) of the same molecule?
Its value is 0.0.

What about the “Preemergence herbicidal rating IPOHE” value ([6]; rate 0.1250 kg/ha) of the same molecule?
Its value is 9.0.

And the “Preemergence herbicidal rating IPOHE” value ([6]; rate 0.2500 kg/ha)?
The value was 9.0.

What about the “Preemergence herbicidal rating ECHCG” value (ECHCG (Barnyardgrass) [7]; rate 0.0156 kg/ha) of the same molecule?
The value was 0.0.

What about the “Preemergence herbicidal rating ECHCG” value (ECHCG (Barnyardgrass) [7]; rate 0.0313 kg/ha) of the same molecule?
Its value is 0.0.

And the “Preemergence herbicidal rating ECHCG” value (ECHCG (Barnyardgrass) [7]; rate 0.0625 kg/ha)?
Its value is 0.0.

What about the “Preemergence herbicidal rating ECHCG” value (ECHCG (Barnyardgrass) [7]; rate 0.1250 kg/ha) of the same molecule?
Its value is 2.0.

What about the “Preemergence herbicidal rating ECHCG” value (ECHCG (Barnyardgrass) [7]; rate 0.2500 kg/ha) of the same molecule?
Its value is 4.0.

And the “Preemergence herbicidal rating ZEAMX” value (ZEAMX (Corn, Field); rate 0.0156 kg/ha)?
The value was 0.0.

And the “Preemergence herbicidal rating ZEAMX” value (ZEAMX (Corn, Field); rate 0.0313 kg/ha)?
Its value is 0.0.

What about the “Preemergence herbicidal rating ZEAMX” value (ZEAMX (Corn, Field); rate 0.0625 kg/ha) of the same molecule?
Its value is 0.0.

What about the “Preemergence herbicidal rating ZEAMX” value (ZEAMX (Corn, Field); rate 0.1250 kg/ha) of the same molecule?
The value was 3.0.

What about the “Preemergence herbicidal rating ZEAMX” value (ZEAMX (Corn, Field); rate 0.2500 kg/ha) of the same molecule?
Its value is 3.0.

What about the “Herbicidal rating ECHORC” value ([8]; Rate 0.1250 kg/ha) of the same molecule?
Its value is 0.0.

And the “Herbicidal rating ECHORC” value ([8]; Rate 0.2500 kg/ha)?
Its value is 7.0.
